{
  "source": "ChEMBL document CHEMBL5331122",
  "about": "“Structure-Activity Relationship Study of Antimicrobial Peptide PE2 Delivered Novel Linear Derivatives with Potential of Eradicating Biofilms and Low Incidence of Drug Resistance” (J Med Chem, 2023)",
  "assay_type_in_all_cases": "functional",
  "key": {"[1]": {"system": "Enterococcus faecalis", "experiment": "Antibacterial activity against Enterococcus faecalis ATCC 29212 assessed as bacterial growth inhibition incubated for 18 hrs by broth microdilution method"}, "[2]": {"system": "Klebsiella pneumoniae", "experiment": "Antibacterial activity against Klebsiella pneumoniae ATCC 700603 assessed as bacterial growth inhibition incubated for 18 hrs by broth microdilution method"}, "[3]": {"system": "Pseudomonas aeruginosa", "experiment": "Antibacterial activity against Pseudomonas aeruginosa ATCC 27853 assessed as bacterial growth inhibition incubated for 18 hrs by broth microdilution method"}, "[4]": {"system": "Staphylococcus aureus", "experiment": "Antibacterial activity against Staphylococcus aureus ATCC 25923 assessed as fold increase in MIC in presence of MgCl2"}, "[5]": {"system": "Staphylococcus aureus", "experiment": "Antibacterial activity against Staphylococcus aureus ATCC 25923 assessed as fold increase in MIC in presence of KCl"}, "[6]": {"system": "Escherichia coli", "experiment": "Antibacterial activity against Escherichia coli ATCC 25922 assessed as fold increase in MIC in presence of MgCl2"}, "[7]": {"system": "Staphylococcus aureus", "experiment": "Antibacterial activity against Staphylococcus aureus ATCC 25923 assessed as bacterial growth inhibition incubated for 18 hrs by broth microdilution method"}, "[8]": {"system": "Escherichia coli", "experiment": "Antibacterial activity against Escherichia coli ATCC 25922 assessed as fold increase in MIC in presence of KCl"}, "[9]": {"system": "Escherichia coli", "experiment": "Antibacterial activity against Escherichia coli ATCC 25922 assessed as fold increase in MIC in presence of FeCl3"}, "[10]": {"system": "Escherichia coli", "experiment": "Antibacterial activity against Escherichia coli ATCC 25922 assessed as fold increase in MIC in presence of ZnCl2"}, "[11]": {"system": "Escherichia coli", "experiment": "Antibacterial activity against Escherichia coli ATCC 25922 assessed as bacterial growth inhibition incubated for 18 hrs by broth microdilution method"}, "[12]": {"system": "Staphylococcus aureus", "experiment": "Antibacterial activity against Staphylococcus aureus ATCC 25923 assessed as fold increase in MIC in presence of FeCl3"}, "[13]": {"system": "Staphylococcus aureus", "experiment": "Antibacterial activity against Staphylococcus aureus ATCC 25923 assessed as fold increase in MIC in presence of NaCl"}, "[14]": {"system": "Staphylococcus aureus", "experiment": "Antibacterial activity against Staphylococcus aureus ATCC 25923 assessed as fold increase in MIC in presence of ZnCl2"}, "[15]": {"system": "Escherichia coli", "experiment": "Antibacterial activity against Escherichia coli ATCC 25922 assessed as fold increase in MIC in presence of NaCl"}, "[16]": {"system": "Bacillus subtilis", "experiment": "Antibacterial activity against Bacillus subtilis ATCC 23857 assessed as bacterial growth inhibition incubated for 18 hrs by broth microdilution method"}, "[17]": {"system": "Escherichia coli", "experiment": "Induction of drug resistance against Escherichia coli ATCC 25922 assessed as fold increase in MIC measured upto 15 passages by sequential passaging method"}, "[18]": {"system": "Escherichia coli", "experiment": "Induction of drug resistance against Escherichia coli ATCC 25922measured after 5 to 7 passages by sequential passaging method"}, "[19]": {"system": "Escherichia coli", "experiment": "Antibacterial activity against rifampicin-resistant Escherichia coli ATCC 25922 assessed as reduction in bacterial growth incubated for 18 hrs by broth microdilution method"}, "[20]": {"system": "Staphylococcus aureus", "experiment": "Induction of drug resistance against Staphylococcus aureus ATCC 25923 assessed as fold increase in MIC measured upto 15 passages by sequential passaging method"}, "[21]": {"system": "Staphylococcus aureus", "experiment": "Antibacterial activity against rifampicin-resistant Staphylococcus aureus ATCC 25923 assessed as reduction in bacterial growth incubated for 18 hrs by broth microdilution method"}},
  "note": "The source made the active and inactive calls. The calls are words filed in the database; no cut-off is given here. Where a SMILES comes first, the peptide text is derived from it. Bridges are numbered along the chain shown (N, C = ends). [ ]: non-standard residue; d: D form. The star is where a group is joined. Heptanoyl(6-Me) = CC(C)CCCCC(=O)*; Dab = NCC[C@H](N)C(=O)O",
  "data": [
    {"smiles": "CC(C)CCCCC(=O)N[C@@H](CCN)C(=O)N[C@H](C(=O)N[C@@H](CCN)C(=O)N[C@H]1CCNC(=O)[C@H]([C@@H](C)O)NC(=O)[C@H](CCN)NC(=O)[C@H](CCN)NC(=O)[C@H](CC(C)C)NC(=O)[C@@H](Cc2ccccc2)NC(=O)[C@H](CCN)NC1=O)[C@@H](C)O", "note": "({Heptanoyl(6-Me)}-[Dab]T[Dab][Dab][Dab][dF]L[Dab][Dab]T; lactam 4-C)", "values": [
      {"measurement": "MIC", "setting": "[1]", "result": 128, "unit": "µg/mL"},
      {"measurement": "MIC", "setting": "[2]", "result": 4, "unit": "µg/mL"},
      {"measurement": "MIC", "setting": "[3]", "result": 2, "unit": "µg/mL"},
      {"measurement": "fold change (FC)", "setting": "[4]", "result": 4},
      {"measurement": "fold change (FC)", "setting": "[5]", "result": 4},
      {"measurement": "fold change (FC)", "setting": "[6]", "result": "<=2"},
      {"measurement": "MIC", "setting": "[7]", "result": 16, "unit": "µg/mL"},
      {"measurement": "fold change (FC)", "setting": "[8]", "result": "<=2"},
      {"measurement": "fold change (FC)", "setting": "[9]", "result": "<=2"},
      {"measurement": "fold change (FC)", "setting": "[10]", "result": "<=2"},
      {"measurement": "MIC", "setting": "[11]", "result": "< 1", "unit": "µg/mL"},
      {"measurement": "fold change (FC)", "setting": "[12]", "result": 4},
      {"measurement": "fold change (FC)", "setting": "[13]", "result": 4},
      {"measurement": "fold change (FC)", "setting": "[14]", "result": 4},
      {"measurement": "fold change (FC)", "setting": "[15]", "result": "<=2"},
      {"measurement": "MIC", "setting": "[16]", "result": 8, "unit": "µg/mL"}
    ]},
    {"smiles": "CO[C@H]1/C=C/O[C@@]2(C)Oc3c(C)c(O)c4c(O)c(c(/C=N/N5CCN(C)CC5)c(O)c4c3C2=O)NC(=O)/C(C)=C\\C=C\\[C@H](C)[C@H](O)[C@@H](C)[C@@H](O)[C@@H](C)[C@H](OC(C)=O)[C@@H]1C", "note": "[RIFAMPIN]", "values": [
      {"measurement": "MIC", "setting": "[1]", "result": "< 1", "unit": "µg/mL"},
      {"measurement": "MIC", "setting": "[2]", "result": 32, "unit": "µg/mL"},
      {"measurement": "MIC", "setting": "[3]", "result": 32, "unit": "µg/mL"},
      {"measurement": "fold change (FC)", "setting": "[17]", "result": 64},
      {"measurement": "Activity", "setting": "[18]", "result": "Active"},
      {"measurement": "MIC", "setting": "[7]", "result": "< 1", "unit": "µg/mL"},
      {"measurement": "MIC", "setting": "[19]", "result": 4100, "unit": "µg/mL"},
      {"measurement": "fold change (FC)", "setting": "[20]", "result": 512},
      {"measurement": "MIC", "setting": "[21]", "result": 2050, "unit": "µg/mL"},
      {"measurement": "MIC", "setting": "[11]", "result": 4, "unit": "µg/mL"},
      {"measurement": "MIC", "setting": "[16]", "result": "< 1", "unit": "µg/mL"}
    ]}
  ]
}
